In the NIST ThermoML archive (doi:10.1016/j.fluid.2010.08.022):
± gives the expanded uncertainty stated by the source.

Conditions: 101.33 kPa; for speed of sound: Sing-around technique in a fixed-path interferometer; for mass density: Vibrating tube method

CCCCCCCC/C=C\CCCCCCCC(=O)O.NCCO [2-hydroxyethylammonium oleate]
Conditions	mass density [kg/m3]	speed of sound [m/s]
278.16 K, Crystal	955.929 ± 2.9	1635.4 ± 3.7
278.41 K, Crystal	955.757 ± 2.9	1634.1 ± 3.7
278.66 K, Crystal	955.58 ± 2.9	1632.7 ± 3.7
278.9 K, Crystal	955.409 ± 2.9	1631.4 ± 3.7
279.16 K, Crystal	955.234 ± 2.9	1630 ± 3.7
279.41 K, Crystal	955.057 ± 2.9	1628.7 ± 3.7
279.65 K, Crystal	954.881 ± 2.9	1627.4 ± 3.7
279.91 K, Crystal	954.704 ± 2.9	1626.1 ± 3.7
280.16 K, Crystal	954.527 ± 2.9	1624.7 ± 3.7
280.41 K, Crystal	954.349 ± 2.8	1623.4 ± 3.7
280.65 K, Crystal	954.172 ± 2.8	1622.1 ± 3.7
280.91 K, Crystal	953.991 ± 2.8	1620.8 ± 3.7
281.15 K, Crystal	953.811 ± 2.8	1619.5 ± 3.7
281.41 K, Crystal	953.63 ± 2.8	1618.2 ± 3.7
281.66 K, Crystal	953.448 ± 2.8	1616.8 ± 3.7
281.91 K, Crystal	953.266 ± 2.8	1615.5 ± 3.7
282.16 K, Crystal	953.081 ± 2.8	1614.2 ± 3.7
282.41 K, Crystal	952.898 ± 2.8	1612.9 ± 3.7
282.66 K, Crystal	952.714 ± 2.8	1611.6 ± 3.7
282.91 K, Crystal	952.526 ± 2.8	1610.3 ± 3.7
283.16 K, Crystal	952.337 ± 2.8	1608.9 ± 3.7
283.41 K, Crystal	952.15 ± 2.8	1607.6 ± 3.7
283.66 K, Crystal	951.962 ± 2.8	1606.3 ± 3.7
283.91 K, Crystal	951.769 ± 2.8	1605 ± 3.7
284.16 K, Crystal	951.578 ± 2.8	1603.6 ± 3.7
284.41 K, Crystal	951.383 ± 2.8	1602.3 ± 3.7
284.66 K, Crystal	951.188 ± 2.8	1600.8 ± 3.7
284.91 K, Crystal	950.989 ± 2.8	1599.3 ± 3.7
285.15 K, Crystal	950.796 ± 2.8	1597.7 ± 3.7
285.4 K, Crystal	950.604 ± 2.8	1595.8 ± 3.7
285.65 K, Crystal	950.404 ± 2.8	1592.8 ± 3.7
285.9 K, Crystal	950.405 ± 2.8	1593.2 ± 3.7
286.15 K, Liquid crystal of unknown type	944.693 ± 1.7	1554.4 ± 3.7
286.4 K, Liquid crystal of unknown type	944.221 ± 1.7	1552.7 ± 3.7
286.65 K, Liquid crystal of unknown type	944.256 ± 1.7	1553.3 ± 3.7
286.9 K, Liquid crystal of unknown type	943.886 ± 1.7	1551.5 ± 3.7
287.15 K, Liquid crystal of unknown type	943.629 ± 1.7	1550.2 ± 3.7
287.4 K, Liquid crystal of unknown type	943.416 ± 1.7	1548.9 ± 3.7
287.65 K, Liquid crystal of unknown type	943.228 ± 1.7	1547.7 ± 3.7
287.9 K, Liquid crystal of unknown type	943.055 ± 1.7	1546.7 ± 3.7
288.15 K, Liquid crystal of unknown type	942.888 ± 1.7	1545.7 ± 3.7
288.4 K, Liquid crystal of unknown type	942.726 ± 1.7	1544.7 ± 3.7
288.65 K, Liquid crystal of unknown type	942.565 ± 1.7	1543.7 ± 3.7
288.9 K, Liquid crystal of unknown type	942.405 ± 1.7	1542.7 ± 3.7
289.15 K, Liquid crystal of unknown type	942.244 ± 1.7	1541.8 ± 3.7
289.4 K, Liquid crystal of unknown type	942.083 ± 1.7	1540.8 ± 3.7
289.65 K, Liquid crystal of unknown type	941.923 ± 1.7	1539.9 ± 3.7
289.9 K, Liquid crystal of unknown type	941.764 ± 1.7	1539 ± 3.7
290.15 K, Liquid crystal of unknown type	941.604 ± 1.7	1538.1 ± 3.7
290.4 K, Liquid crystal of unknown type	941.445 ± 1.7	1537.2 ± 3.7
290.66 K, Liquid crystal of unknown type	941.282 ± 1.7	1536.2 ± 3.7
290.9 K, Liquid crystal of unknown type	941.124 ± 1.7	1535.3 ± 3.7
291.15 K, Liquid crystal of unknown type	940.965 ± 1.7	1534.4 ± 3.7
291.4 K, Liquid crystal of unknown type	940.805 ± 1.7	1533.5 ± 3.7
291.65 K, Liquid crystal of unknown type	940.646 ± 1.7	1532.6 ± 3.7
291.91 K, Liquid crystal of unknown type	940.485 ± 1.7	1531.7 ± 3.7
292.15 K, Liquid crystal of unknown type	940.327 ± 1.7	1530.8 ± 3.7
292.41 K, Liquid crystal of unknown type	940.167 ± 1.7	1530 ± 3.7
292.65 K, Liquid crystal of unknown type	940.008 ± 1.7	1529.1 ± 3.7
292.9 K, Liquid crystal of unknown type	939.848 ± 1.7	1528.2 ± 3.7
293.16 K, Liquid crystal of unknown type	939.688 ± 1.7	1527.3 ± 3.7
293.4 K, Liquid crystal of unknown type	939.529 ± 1.7	1526.4 ± 3.7
293.66 K, Liquid crystal of unknown type	939.369 ± 1.7	1525.5 ± 3.7
293.9 K, Liquid crystal of unknown type	939.211 ± 1.7	1524.6 ± 3.7
294.16 K, Liquid crystal of unknown type	939.05 ± 1.7	1523.7 ± 3.7
294.41 K, Liquid crystal of unknown type	938.892 ± 1.7	1522.9 ± 3.7
294.66 K, Liquid crystal of unknown type	938.731 ± 1.7	1522 ± 3.7
294.91 K, Liquid crystal of unknown type	938.572 ± 1.7	1521.1 ± 3.7
295.16 K, Liquid crystal of unknown type	938.414 ± 1.7	1520.2 ± 3.7
295.41 K, Liquid crystal of unknown type	938.256 ± 1.7	1519.4 ± 3.7
295.66 K, Liquid crystal of unknown type	938.095 ± 1.7	1518.5 ± 3.7
295.91 K, Liquid crystal of unknown type	937.936 ± 1.7	1517.6 ± 3.7
296.16 K, Liquid crystal of unknown type	937.777 ± 1.7	1516.8 ± 3.7
296.41 K, Liquid crystal of unknown type	937.618 ± 1.7	1515.9 ± 3.7
296.66 K, Liquid crystal of unknown type	937.459 ± 1.7	1515 ± 3.7
296.91 K, Liquid crystal of unknown type	937.301 ± 1.7	1514.2 ± 3.7
297.16 K, Liquid crystal of unknown type	937.14 ± 1.7	1513.3 ± 3.7
297.41 K, Liquid crystal of unknown type	936.981 ± 1.7	1512.5 ± 3.7
297.66 K, Liquid crystal of unknown type	936.822 ± 1.7	1511.6 ± 3.7
297.91 K, Liquid crystal of unknown type	936.662 ± 1.7	1510.8 ± 3.7
298.15 K, Liquid crystal of unknown type	936.505 ± 1.7	1509.9 ± 3.7
298.41 K, Liquid crystal of unknown type	936.345 ± 1.7	1509 ± 3.7
298.66 K, Liquid crystal of unknown type	936.186 ± 1.7	1508.2 ± 3.7
298.91 K, Liquid crystal of unknown type	936.026 ± 1.7	1507.3 ± 3.7
299.15 K, Liquid crystal of unknown type	935.868 ± 1.7	1506.5 ± 3.7
299.41 K, Liquid crystal of unknown type	935.709 ± 1.7	1505.6 ± 3.7
299.66 K, Liquid crystal of unknown type	935.55 ± 1.7	1504.8 ± 3.7
299.91 K, Liquid crystal of unknown type	935.39 ± 1.7	1503.9 ± 3.7
300.16 K, Liquid crystal of unknown type	935.231 ± 1.7	1503 ± 3.7
300.41 K, Liquid crystal of unknown type	935.072 ± 1.7	1502.2 ± 3.7
300.66 K, Liquid crystal of unknown type	934.914 ± 1.7	1501.3 ± 3.7
300.9 K, Liquid crystal of unknown type	934.755 ± 1.7	1500.5 ± 3.7
301.16 K, Liquid crystal of unknown type	934.596 ± 1.7	1499.7 ± 3.7
301.41 K, Liquid crystal of unknown type	934.436 ± 1.7	1498.8 ± 3.7
301.66 K, Liquid crystal of unknown type	934.277 ± 1.7	1498 ± 3.7
301.91 K, Liquid crystal of unknown type	934.118 ± 1.7	1497.1 ± 3.7
302.16 K, Liquid crystal of unknown type	933.959 ± 1.7	1496.3 ± 3.7
302.41 K, Liquid crystal of unknown type	933.802 ± 1.7	1495.5 ± 3.7
302.66 K, Liquid crystal of unknown type	933.642 ± 1.7	1494.6 ± 3.7
302.91 K, Liquid crystal of unknown type	933.483 ± 1.7	1493.8 ± 3.7
303.16 K, Liquid crystal of unknown type	933.324 ± 1.7	1492.9 ± 3.7
303.4 K, Liquid crystal of unknown type	933.167 ± 1.7	1492.1 ± 3.7
303.66 K, Liquid crystal of unknown type	933.005 ± 1.7	1491.3 ± 3.7
303.91 K, Liquid crystal of unknown type	932.846 ± 1.7	1490.4 ± 3.7
304.16 K, Liquid crystal of unknown type	932.688 ± 1.7	1489.6 ± 3.7
304.41 K, Liquid crystal of unknown type	932.529 ± 1.7	1488.8 ± 3.7
304.66 K, Liquid crystal of unknown type	932.371 ± 1.7	1488 ± 3.7
304.91 K, Liquid crystal of unknown type	932.212 ± 1.7	1487.1 ± 3.7
305.16 K, Liquid crystal of unknown type	932.053 ± 1.7	1486.3 ± 3.7
305.41 K, Liquid crystal of unknown type	931.892 ± 1.7	1485.5 ± 3.7
305.66 K, Liquid crystal of unknown type	931.734 ± 1.7	1484.7 ± 3.7
305.9 K, Liquid crystal of unknown type	931.576 ± 1.7	1483.8 ± 3.7
306.16 K, Liquid crystal of unknown type	931.416 ± 1.7	1483 ± 3.7
306.4 K, Liquid crystal of unknown type	931.258 ± 1.7	1482.2 ± 3.7
306.66 K, Liquid crystal of unknown type	931.098 ± 1.7	1481.4 ± 3.7
306.91 K, Liquid crystal of unknown type	930.939 ± 1.7	1480.5 ± 3.7
307.16 K, Liquid crystal of unknown type	930.781 ± 1.7	1479.7 ± 3.7
307.41 K, Liquid crystal of unknown type	930.622 ± 1.7	1478.9 ± 3.7
307.66 K, Liquid crystal of unknown type	930.464 ± 1.7	1478.1 ± 3.7
307.91 K, Liquid crystal of unknown type	930.304 ± 1.7	1477.3 ± 3.7
308.16 K, Liquid crystal of unknown type	930.145 ± 1.7	1476.4 ± 3.7
308.41 K, Liquid crystal of unknown type	929.987 ± 1.7	1475.6 ± 3.7
308.65 K, Liquid crystal of unknown type	929.828 ± 1.7	1474.8 ± 3.7
308.91 K, Liquid crystal of unknown type	929.668 ± 1.7	1474 ± 3.7
309.16 K, Liquid crystal of unknown type	929.509 ± 1.7	1473.2 ± 3.7
309.4 K, Liquid crystal of unknown type	929.35 ± 1.7	1472.3 ± 3.7
309.66 K, Liquid crystal of unknown type	929.189 ± 1.7	1471.5 ± 3.7
309.91 K, Liquid crystal of unknown type	929.032 ± 1.7	1470.7 ± 3.7
310.16 K, Liquid crystal of unknown type	928.874 ± 1.7	1469.9 ± 3.7
310.41 K, Liquid crystal of unknown type	928.713 ± 1.7	1469 ± 3.7
310.66 K, Liquid crystal of unknown type	928.554 ± 1.7	1468.2 ± 3.7
310.91 K, Liquid crystal of unknown type	–	1467.4 ± 3.7
